biological target: WDR5 (Homo sapiens (Human), UniProt P61964); assay: Surface Plasmon Resonance (SPR) assay, KD and residence time; format: binding; conditions: surface plasmon resonance (SPR) assay; read-out: WDR5 binding affinity (KD)

Structure (SMILES)	Kd [nM]
C[C@@H]1CN(c2cc(F)c(-c3cnc(N(C)C)nc3)cc2NC(=O)c2ccc(F)cc2C(F)(F)F)C[C@H](C)N1C [Example 380, N-[5-[2-(dimethylamino)pyrimidin-5-yl]-4-fluoro-2-[(3R,5S)-3,4,5-trimethylpiperazin-1-yl]phenyl]-4-fluoro-2-(trifluoromethyl)benzamide]	1.7
CCCN(C)C1CCN(c2cc(F)c(-c3cnc(N4CCOCC4)nc3)cc2NC(=O)c2c[nH]c(=O)cc2C(F)(F)F)C1 (stereo not drawn) [Example 303, N-[4-fluoro-2-[3-[methyl(propyl)amino]pyrrolidin-1-yl]-5-(2-morpholin-4-ylpyrimidin-5-yl)phenyl]-6-oxo-4-(trifluoromethyl)-1H-pyridine-3-carboxamide]	1.68
COc1ccccc1C(=O)Nc1cc(-c2cnc(N3CCOCC3)nc2)c(F)cc1N1C[C@@H](C)N(C)[C@@H](C)C1 [Example 86, N-[4-fluoro-5-(2-morpholin-4-ylpyrimidin-5-yl)-2-[(3R,5S)-3,4,5-trimethylpiperazin-1-yl]phenyl]-2-methoxybenzamide]	204
Cc1ncc(CN2CC=C(c3cc(NC(=O)c4c[nH]c(=O)cc4C(F)(F)F)c(N4C[C@@H](C)N(C)[C@@H](C)C4)cc3F)CC2)o1 [Example 163, N-[4-fluoro-5-[1-[(2-methyl-1,3-oxazol-5-yl)methyl]-3,6-dihydro-2H-pyridin-4-yl]-2-[(3R,5S)-3,4,5-trimethylpiperazin-1-yl]phenyl]-6-oxo-4-(trifluoromethyl)-1H-pyridine-3-carboxamide]	4.05
Cc1cc(C#N)ncc1-c1cc(NC(=O)c2c[nH]c(=O)cc2C(F)(F)F)c(N2C[C@@H](C)N(C)[C@@H](C)C2)cc1F [Example 269, N-[5-(6-cyano-4-methylpyridin-3-yl)-4-fluoro-2-[(3R,5S)-3,4,5-trimethylpiperazin-1-yl]phenyl]-6-oxo-4-(trifluoromethyl)-1H-pyridine-3-carboxamide]	8.74
C[C@@H]1CN(c2cc(F)c(C3=CCN(C(=O)Oc4ccccc4)CC3)cc2NC(=O)c2c[nH]c(=O)cc2C(F)(F)F)C[C@H](C)N1C [Example 288, phenyl 4-[2-fluoro-5-[[6-oxo-4-(trifluoromethyl)-1H-pyridine-3-carbonyl]amino]-4-[(3R,5S)-3,4,5-trimethylpiperazin-1-yl]phenyl]-3,6-dihydro-2H-pyridine-1-carboxylate]	1.11

Second part, the molecule after the results:

Kd [nM]	Structure (SMILES)
0.57	COc1ccc(CC(=O)N2CC=C(c3cc(NC(=O)c4c[nH]c(=O)cc4C(F)(F)F)c(N4C[C@@H](C)N(C)[C@@H](C)C4)cc3F)CC2)cc1 [Example 208, N-[4-fluoro-5-[1-[2-(4-methoxyphenyl)acetyl]-3,6-dihydro-2H-pyridin-4-yl]-2-[(3R,5S)-3,4,5-trimethylpiperazin-1-yl]phenyl]-6-oxo-4-(trifluoromethyl)-1H-pyridine-3-carboxamide]
0.522	C[C@@H]1CN(c2ncc(-c3cc(NC(=O)c4c[nH]c(=O)cc4C(F)(F)F)c(N4CCN(C)[C@H](C)C4)cc3F)cn2)CCO1 (stereo in doubt) [Example 389, N-[4-fluoro-2-[(3R)-3,4-dimethylpiperazin-1-yl]-5-[2-[(2R)-2-methylmorpholin-4-yl]pyrimidin-5-yl]phenyl]-6-oxo-4-(trifluoromethyl)-1H-pyridine-3-carboxamide]

same assay, conditions: surface plasmon resonance (SPR); read-out: WDR5 binding affinity (KD)

Structure (SMILES)	Kd [nM]
C[C@@H]1CN(c2cc(F)c(-c3cc(F)c(C(N)=O)c(F)c3)cc2NC(=O)c2ccc(F)cc2C(F)(F)F)C[C@H](C)N1C [Example 656, 2,6-difluoro-4-[2-fluoro-5-[[4-fluoro-2-(trifluoromethyl)benzoyl]amino]-4-[(3R,5S)-3,4,5-trimethylpiperazin-1-yl]phenyl]benzamide]	5.44
C[C@@H]1CN(c2cc(F)c(-c3ccn(C)c(=O)c3)cc2NC(=O)c2c[nH]c(=O)cc2C(F)(F)F)C[C@H](C)N1C [Example 567, N-[4-fluoro-5-(1-methyl-2-oxopyridin-4-yl)-2-[(3R,5S)-3,4,5-trimethylpiperazin-1-yl]phenyl]-6-oxo-4-(trifluoromethyl)-1H-pyridine-3-carboxamide]	1.18
C[C@@H]1CN(c2cc(F)c(C3=CCN(c4ncc(CN(C)C)cn4)C3)cc2NC(=O)c2c[nH]c(=O)cc2C(F)(F)F)C[C@H](C)N1C [Example 457, N-[5-[1-[5-[(dimethylamino)methyl]pyrimidin-2-yl]-2,5-dihydropyrrol-3-yl]-4-fluoro-2-[(3R,5S)-3,4,5-trimethylpiperazin-1-yl]phenyl]-6-oxo-4-(trifluoromethyl)-1H-pyridine-3-carboxamide]	2.57
C[C@@H]1CN(c2cc(F)c(-c3ccc(N4CCOCC4)nc3)cc2NC(=O)c2ccc(F)cc2C(F)(F)F)C[C@H](C)N1C [Example 547, 4-fluoro-N-[4-fluoro-5-(6-morpholin-4-ylpyridin-3-yl)-2-[(3R,5S)-3,4,5-trimethylpiperazin-1-yl]phenyl]-2-(trifluoromethyl)benzamide]	1.5
C[C@@H]1CN(c2cc(F)c(-c3cnc(NS(C)(=O)=O)nc3)cc2NC(=O)c2c[nH]c(=O)cc2C(F)(F)F)C[C@H](C)N1C [Example 582, N-[4-fluoro-5-[2-(methanesulfonamido)pyrimidin-5-yl]-2-[(3R,5S)-3,4,5-trimethylpiperazin-1-yl]phenyl]-6-oxo-4-(trifluoromethyl)-1H-pyridine-3-carboxamide]	5.78

The next lines start with the values.

Kd [nM]	Structure (SMILES)
7.31	C[C@@H]1CN(c2cc(F)c(C3=CCCN(c4ncc(C#N)s4)CC3)cc2NC(=O)c2c[nH]c(=O)cc2C(F)(F)F)C[C@H](C)N1C [Example 700, N-[5-[1-(5-cyano-1,3-thiazol-2-yl)-2,3,6,7-tetrahydroazepin-4-yl]-4-fluoro-2-[(3R,5S)-3,4,5-trimethylpiperazin-1-yl]phenyl]-6-oxo-4-(trifluoromethyl)-1H-pyridine-3-carboxamide]
2.45	Cc1cnc(N2CC=C(c3cc(NC(=O)c4c[nH]c(=O)cc4C(F)(F)F)c(N4C[C@@H](C)N(C)[C@@H](C)C4)cc3F)C2)nc1 [Example 439, N-[4-fluoro-5-[1-(5-methylpyrimidin-2-yl)-2,5-dihydropyrrol-3-yl]-2-[(3R,5S)-3,4,5-trimethylpiperazin-1-yl]phenyl]-6-oxo-4-(trifluoromethyl)-1H-pyridine-3-carboxamide]
2.44	C[C@@H]1CN(c2cc(F)c(-c3nc(C(=O)N4CCOCC4)cs3)cc2NC(=O)c2c[nH]c(=O)cc2C(F)(F)F)C[C@H](C)N1C [Example 486, N-[4-fluoro-5-[4-(morpholine-4-carbonyl)-1,3-thiazol-2-yl]-2-[(3R,5S)-3,4,5-trimethylpiperazin-1-yl]phenyl]-6-oxo-4-(trifluoromethyl)-1H-pyridine-3-carboxamide]
2.75	CC(C)COC(=O)N1CCC=C(c2cc(NC(=O)c3c[nH]c(=O)cc3C(F)(F)F)c(N3C[C@@H](C)N(C)[C@@H](C)C3)cc2F)C1 [Example 408, 2-methylpropyl 5-[2-fluoro-5-[[6-oxo-4-(trifluoromethyl)-1H-pyridine-3-carbonyl]amino]-4-[(3R,5S)-3,4,5-trimethylpiperazin-1-yl]phenyl]-3,6-dihydro-2H-pyridine-1-carboxylate]
0.271	CC(C)OC(=O)N1CCC=C(c2cc(NC(=O)c3c[nH]c(=O)cc3C(F)(F)F)c(N3C[C@@H](C)N(C)[C@@H](C)C3)cc2F)C1 [Example 601, propan-2-yl 5-[2-fluoro-5-[[6-oxo-4-(trifluoromethyl)-1H-pyridine-3-carbonyl]amino]-4-[(3R,5S)-3,4,5-trimethylpiperazin-1-yl]phenyl]-3,6-dihydro-2H-pyridine-1-carboxylate]
3.01	C[C@@H]1CN(c2cc(F)c(-c3csc(CN4CCOCC4)c3)cc2NC(=O)c2c[nH]c(=O)cc2C(F)(F)F)C[C@H](C)N1C [Example 494, N-[4-fluoro-5-[5-(morpholin-4-ylmethyl)thiophen-3-yl]-2-[(3R,5S)-3,4,5-trimethylpiperazin-1-yl]phenyl]-6-oxo-4-(trifluoromethyl)-1H-pyridine-3-carboxamide]
2.23	C[C@@H]1CN(c2cc(F)c(C3=CCN(c4ncc(C#N)s4)CC3)cc2NC(=O)c2c[nH]c(=O)cc2C(F)F)C[C@H](C)N1C [Example 685, N-[5-[1-(5-cyano-1,3-thiazol-2-yl)-3,6-dihydro-2H-pyridin-4-yl]-4-fluoro-2-[(3R,5S)-3,4,5-trimethylpiperazin-1-yl]phenyl]-4-(difluoromethyl)-6-oxo-1H-pyridine-3-carboxamide]
1.98	C[C@@H]1CN(c2cc(F)c(C3=CCN(C(=O)OC4(C)CCC4)C3)cc2NC(=O)c2c[nH]c(=O)cc2C(F)F)C[C@H](C)N1C [Example 630, 1-Methylcyclobutyl 3-(5-(4-(difluoromethyl)-6-oxo-1,6-dihydropyridine-3-carboxamido)-2-fluoro-4-((3S,5R)-3,4,5-trimethylpiperazin-1-yl)phenyl)-2,5-dihydro-1H-pyrrole-1-carboxylate]
2.02	CC1CN(c2cc(F)c(C3=CCCN(C(=O)OC4CC(F)(F)C4)C3)cc2NC(=O)c2c[nH]c(=O)cc2C(F)F)CCN1C (stereo in doubt) [Example 705, (3,3-difluorocyclobutyl) 5-[5-[[4-(difluoromethyl)-6-oxo-1H-pyridine-3-carbonyl]amino]-2-fluoro-4-[(3R)-3,4-dimethylpiperazin-1-yl]phenyl]-3,6-dihydro-2H-pyridine-1-carboxylate]
2.19	C[C@@H]1CN(c2cc(F)c(C3=CCN(C(=O)c4cnccn4)CC3)cc2NC(=O)c2c[nH]c(=O)cc2C(F)(F)F)C[C@H](C)N1C [Example 573, N-[4-fluoro-5-[1-(pyrazine-2-carbonyl)-3,6-dihydro-2H-pyridin-4-yl]-2-[(3R,5S)-3,4,5-trimethylpiperazin-1-yl]phenyl]-6-oxo-4-(trifluoromethyl)-1H-pyridine-3-carboxamide]
0.897	C[C@@H]1CN(c2cc(F)c(C3=CCN(C(=O)OC4(C)CCC4)CC3)cc2NC(=O)c2c[nH]c(=O)cc2C(F)F)C[C@H](C)N1C [Example 651, (1-methylcyclobutyl) 4-[5-[[4-(difluoromethyl)-6-oxo-1H-pyridine-3-carbonyl]amino]-2-fluoro-4-[(3R,5S)-3,4,5-trimethylpiperazin-1-yl]phenyl]-3,6-dihydro-2H-pyridine-1-carboxylate]
